In patent publication US20260373169A1, “SYNERGISTIC COMBINATION FOR THE TREATMENT OF CANCER” (FUNDACIÓN UNIVERSITARIA SAN ANTONIO (UCAM), priority 2023, published 2026):

Tests used:
MCF-7 cells = experiment: Combination index / drug interaction (CompuSyn, Chou-Talalay), MCF-7; assay type: cell-based, human
Method: IC50 values were calculated using GraphPad Prism software.
According to the theory of T. C.

MDA-MB-231 cells = details: Glibenclamide alone; inhibiting the G1-S phase progression without inducing cell death or differentiation; cited from earlier work
gliomas = details: cited from earlier work
[1] = weekly doses of 20 mg/m^2; cited from earlier work
U-87 μMG cells = experiment: MTT cytotoxicity assay, U-87 μMG; details: Homo sapiens, U-87 MG, read-out: U-87 μMG cell survival
Method: Glimepiride and its analogs were first prepared as a stock solution in DMSO, and then the drugs were dissolved fresh in culture medium enriched with Tween 80 (final concentration 0.05%).
Human cancer cells (MCF-7, A549 and U-87 μMG) and normal endothelial cells (HMEC-1) were obtained from American Type Cell Culture (Rockville, MD). The cancer cell lines (MCF-7, A549 and U-87 μMG) were cultured as monolayers in Dulbecco's modified Eagle's medium supplemented with 10% (v/v) fetal bovine serum and 1% (v/v) penicillin/streptomycin mixture (10,000 U/mL penicillin and 10 mg/mL streptomycin) in a 100% humidified atmosphere of 5% CO2 and 95% air at 37 °C. […]
The cytotoxic activity of the test compounds against cancer cell lines was tested using the standard MTT (3-(4,5-dimethylthiazol-2-yl)-2,5-diphenyltetrazolium bromide) colorimetric assay. […] Plates were gently shaken at room temperature until the formazan was completely dissolved and read at 540 nm using a microplate reader. With the XTT method, there is no dissolution step in DMSO (XTT is reduced to a highly water-soluble, orange product instead of the insoluble formazan), and the plate is read at 450 nm. […] IC50 values were calculated using GraphPad Prism software. […]
All data are expressed as mean±standard deviation (SD) and presented as a percentage of control (untreated cells) taken as 100%, n=3 (or more). […]

[2] = analog 100-500 μM with Doxorubicin 0.225-0.900 μM, over a wide range of dose combinations

COc1ccc(Cl)cc1C(=O)NCCc1ccc(S(=O)(=O)NC(=O)NC2CCCCC2)cc1 [Glyburide]
drug interaction with Doxorubicin (MCF-7 cells; [2]): strong or very strong synergy | effect in MDA-MB-231 cells (MDA-MB-231 cells): cytostatic effect

Cc1ccc(S(=O)(=O)NC(=O)NN2CC3CCCC3C2)cc1 (stereo not drawn) [Gliclazide, 1-(3,3a,4,5,6,6a-hexahydro-1H-cyclopenta[c]pyrrol-2-yl)-3-(4-methylphenyl) sulfonylurea]
drug interaction with Doxorubicin (MCF-7 cells; [2]): strong or very strong synergy

COc1ccc2c(c1)C(=O)N(CCc1ccc(S(=O)(=O)NC(=O)NC3CCCCC3)cc1)C(=O)C2(C)C [Gliquidone]
drug interaction with Doxorubicin (MCF-7 cells; 100 μM analog in combination with Doxorubicin (0.225-0.900 μM)): additive effect or slight antagonism | drug interaction with Doxorubicin (MCF-7 cells; Gliquidone with Doxorubicin, dose combinations other than 100 μM): synergistic effects

COc1cccc2c1C(=O)c1c(O)c3c(c(O)c1C2=O)C[C@@](O)(C(=O)CO)C[C@@H]3O[C@H]1C[C@H](N)[C@H](O)[C@H](C)O1 [Doxorubicin, (7S,9S)-7-[(2R,4S,5S,6S)-4-amino-5-hydroxy-6 methyloxan-2-yl]oxy-6,9,11-trihydroxy-9-(2-hydroxyacetyl)-4-methoxy-8,10-dihydro-7H tetracene-5,12-dione]
clinical results vs systemic administration (gliomas; intracerebral administration, stage III or IV gliomas, Ommaya reservoir): Significantly better results | clinical efficacy in certain brain tumors, such as gliomas (gliomas; systemic administration): very limited efficacy | neurotoxicity (gliomas; very high systemic doses): highly neurotoxic | incidence of congestive heart failure [1]: lower incidence of congestive heart failure | viability at 0.52 µM (U-87 μMG cells): 75.6%

CCCNC(=O)NS(=O)(=O)c1ccc(Cl)cc1 [Chlorpropamide, 1-(4-chlorophenyl) sulfonyl-3-propylurea]
drug interaction with Doxorubicin (MCF-7 cells; [2]): strong or very strong synergy

Cc1ccc(S(=O)(=O)NC(=O)NN2CCCCCC2)cc1 [Tolazamide, 1-(azepan-1-yl)-3-(4-methylphenyl) sulfonylurea]
drug interaction with Doxorubicin (MCF-7 cells; [2]): strong or very strong synergy
